{
  "source": "paper PMC10410440",
  "about": "“Preclinical PK investigation of a novel IDO1/TDO dual inhibitor—SHR9146 in mouse plasma and tissues by LC-MS/MS” (Frontiers in Oncology, 2023)",
  "assay": "Plasma pharmacokinetics of SHR9146 in mice (LC-MS/MS, non-compartmental analysis)",
  "format": "in vivo, ICR mice",
  "conditions": "both sexes, ICR, mouse, plasma; for bioavailability: mice",
  "description": "ICR mice with body weight 16–26 g were supplied by Shanghai Lingchang Biotechnology Co., Ltd. (animal breeding license number SCXK (Shanghai) 2013-0018) and housed at Shanghai Institute of Materia Medica, Chinese Academy of Sciences [animal use license number SYXK (Shanghai) 2015-0027]. The mice used in this study were fasted overnight for 12 h but had free access to water. Food was supplied 4 h post-dose. All experiments in this study were conducted in accordance with the Guidelines for the Care and Use of Laboratory Animals of Shanghai Institute of Materia Medica, Chinese Academy of Sciences.\nA total of 30 mice were randomly assigned into five groups with equal numbers, males and females. One group was intravenously administrated with 5 mg/kg SHR9146 dissolved in […] plus 95% saline (adjusted pH to 4.0) under sterile conditions. The remaining four groups were administered respectively with a single dose of 20 , 40, or 80 mg/kg or multiple doses of 20 mg/kg twice daily for 7 days, by oral gavage of SHR9146 dissolved in 0.5% CMC-Na. Blood samples were obtained from the fossa orbitalis vein at 15 and 30 min and 1.0, 2.0, 4.0, 6.0, 8.0, 10.0, and 24.0 h after oral gavage administration. An additional 5-min time point was included for iv injection, as well as the pre-drug administration time points on the fifth, sixth, and seventh days in the multiple-dose group. The blood samples were collected in EDTA K2 anticoagulant blood collection tubes and centrifuged at 1,000 rpm for 5 min at 4°C. The supernatant plasma samples were thus produced.\nBriefly as follows, an aliquot of 25-μL plasma or tissue homogenate was spiked with 100 μL of internal standard solution (1 μg/mL for plasma, 0.2 μg/mL for tissue homogenate) and 300 μL of methanol added and vortex mixed for 60 s. The mixture was then centrifuged at 14,000 rpm at 4°C for 5.0 min, and the supernatant was diluted with methanol–water (4:1, v/v) in a ratio of 1:9 for the plasma or 1:1 for the tissue homogenate, and 5 μL of the resulting solution was injected for the LC-MS/MS analysis.\nThe pharmacokinetic parameters of SHR9146 in mouse plasma were estimated by Phoenix 1.4 software using a non-compartmental model.\nThe mean concentration–time curves of SHR9146 in mouse plasma after a single oral gavage dose of 20, 40, or 80 mg/kg, or a single intravenous dose of 5 mg/kg, or the 7th-day steady state after twice-daily multiple oral doses of 20 mg/kg are shown in Figure 5 (Table S6).",
  "key": {"[1]": {"conditions": "oral, 40 mg/kg, 40 mg/kg i.g. single, read-out: plasma drug concentration, mean (n=6)"}, "[2]": {"conditions": "oral, 40 mg/kg, 40 mg/kg i.g. single, read-out: plasma drug concentration, individual mice #1-#6"}, "[3]": {"conditions": "oral, 80 mg/kg, 80 mg/kg i.g. single, read-out: plasma drug concentration, individual mice #1-#6"}, "[4]": {"conditions": "oral, 80 mg/kg, 80 mg/kg i.g. single, read-out: plasma drug concentration, mean (n=6)"}, "[5]": {"conditions": "po, 20 mg/kg, 20 mg/kg i.g. bid, 7 days (7th-day steady state), all mice (Totol, 3 male + 3 female)"}},
  "note": "Read-outs that look alike come from different tables or passages of the source.",
  "data": [
    {"smiles": "OCCn1cc(-c2ccc(N3CCC([C@H]4c5c(F)cccc5-c5cncn54)CC3)cc2)cn1", "note": "[SHR9146]", "values": [
      {"measurement": "concentration at 1 h", "setting": "[1]", "result": 9980, "unit": "ng/mL"},
      {"measurement": "concentration at 2 h", "setting": "[1]", "result": 4920, "unit": "ng/mL"},
      {"measurement": "concentration at 3 h", "setting": "[1]", "result": 1130, "unit": "ng/mL"},
      {"measurement": "concentration at 4 h", "setting": "[1]", "result": 4350, "unit": "ng/mL"},
      {"measurement": "concentration at 6 h", "setting": "[1]", "result": 1010, "unit": "ng/mL"},
      {"measurement": "concentration at 8 h", "setting": "[2]", "result": 582, "unit": "ng/mL"},
      {"measurement": "concentration at 10 h", "setting": "[2]", "result": 293, "unit": "ng/mL"},
      {"measurement": "concentration at 24 h", "setting": "[2]", "result": 136, "unit": "ng/mL"},
      {"measurement": "concentration at 0.25 h", "setting": "oral, 80 mg/kg, 80 mg/kg i.g. single, 0.25 h, read-out: plasma drug concentration, mean (n=6)", "result": 6130, "unit": "ng/mL"},
      {"measurement": "concentration at 0.5 h", "setting": "[3]", "result": 9320, "unit": "ng/mL"},
      {"measurement": "concentration at 0.5 h", "setting": "[4]", "result": 11300, "unit": "ng/mL"},
      {"measurement": "concentration at 1 h", "setting": "[4]", "result": 12900, "unit": "ng/mL"},
      {"measurement": "concentration at 2 h", "setting": "[4]", "result": 8930, "unit": "ng/mL"},
      {"measurement": "concentration at 3 h", "setting": "[4]", "result": 4670, "unit": "ng/mL"},
      {"measurement": "concentration at 4 h", "setting": "[4]", "result": 8950, "unit": "ng/mL"},
      {"measurement": "concentration at 6 h", "setting": "[4]", "result": 2260, "unit": "ng/mL"},
      {"measurement": "concentration at 8 h", "setting": "[4]", "result": 1200, "unit": "ng/mL"},
      {"measurement": "concentration at 10 h", "setting": "[4]", "result": 1700, "unit": "ng/mL"},
      {"measurement": "concentration at 24 h", "setting": "[3]", "result": 96, "unit": "ng/mL"},
      {"measurement": "AUC(0-inf)", "setting": "[5]", "result": 24400, "unit": "ng·h/mL"},
      {"measurement": "Cmax at 7 days", "setting": "[5]", "result": "10700 ± 811", "unit": "ng/mL"},
      {"measurement": "half-life at 7 days", "setting": "[5]", "result": 1.01, "unit": "h"},
      {"measurement": "AUC(0-t)", "setting": "po, 20 mg/kg, 20 mg/kg i.g. bid, 7 days (7th-day steady state), all mice (Totol, 3 male + 3 female), read-out: AUC0-t", "result": 24200, "unit": "ng·h/mL"},
      {"measurement": "Tmax", "setting": "po, 20 mg/kg, 20 mg/kg i.g. bid, 7 days (7th-day steady state), all mice (Totol, 3 male + 3 female), read-out: Tmax", "result": "0.833 ± 0.258", "unit": "h"},
      {"measurement": "bioavailability", "setting": "po, 20 mg/kg, 20 mg/kg i.g. single dose vs 5 mg/kg i.v., one value for the dose, read-out: F (absolute bioavailability)", "result": 57.7, "unit": "%"},
      {"measurement": "AUC(0-inf)", "setting": "po, 20 mg/kg, 20 mg/kg i.g. single dose, all mice (Totol, 3 male + 3 female)", "result": 16300, "unit": "ng·h/mL"},
      {"measurement": "AUC(0-t)", "setting": "po, 20 mg/kg, 20 mg/kg i.g. single dose, all mice (Totol, 3 male + 3 female), read-out: AUC0-t", "result": 15600, "unit": "ng·h/mL"},
      {"measurement": "Cmax", "setting": "po, 20 mg/kg, 20 mg/kg i.g. single dose, all mice (Totol, 3 male + 3 female), read-out: Cmax", "result": "9610 ± 3110", "unit": "ng/mL"},
      {"measurement": "Tmax", "setting": "po, 20 mg/kg, 20 mg/kg i.g. single dose, all mice (Totol, 3 male + 3 female), read-out: Tmax", "result": "0.458 ± 0.292", "unit": "h"},
      {"measurement": "half-life", "setting": "po, 20 mg/kg, 20 mg/kg i.g. single dose, all mice (Totol, 3 male + 3 female), read-out: t1/2 (converted)", "result": 0.699, "unit": "h"},
      {"measurement": "bioavailability", "setting": "po, 40 mg/kg, 40 mg/kg i.g. single dose vs 5 mg/kg i.v., one value for the dose, read-out: F (absolute bioavailability)", "result": 40.2, "unit": "%"},
      {"measurement": "AUC(0-t)", "setting": "po, 40 mg/kg, 40 mg/kg i.g. single dose, all mice (Totol, 3 male + 3 female), read-out: AUC0-t", "result": 21700, "unit": "ng·h/mL"},
      {"measurement": "Cmax", "setting": "po, 40 mg/kg, 40 mg/kg i.g. single dose, all mice (Totol, 3 male + 3 female), read-out: Cmax", "result": "12400 ± 4120", "unit": "ng/mL"},
      {"measurement": "Tmax", "setting": "po, 40 mg/kg, 40 mg/kg i.g. single dose, all mice (Totol, 3 male + 3 female), read-out: Tmax", "result": "1.58 ± 1.28", "unit": "h"},
      {"measurement": "bioavailability", "setting": "po, 80 mg/kg, 80 mg/kg i.g. single dose vs 5 mg/kg i.v., one value for the dose, read-out: F (absolute bioavailability)", "result": 64.7, "unit": "%"},
      {"measurement": "AUC(0-inf)", "setting": "po, 80 mg/kg, 80 mg/kg i.g. single dose, all mice (Totol, 3 male + 3 female)", "result": 70900, "unit": "ng·h/mL"},
      {"measurement": "AUC(0-t)", "setting": "po, 80 mg/kg, 80 mg/kg i.g. single dose, all mice (Totol, 3 male + 3 female), read-out: AUC0-t", "result": 70000, "unit": "ng·h/mL"},
      {"measurement": "Cmax", "setting": "po, 80 mg/kg, 80 mg/kg i.g. single dose, all mice (Totol, 3 male + 3 female), read-out: Cmax", "result": "17100 ± 6290", "unit": "ng/mL"},
      {"measurement": "Tmax", "setting": "po, 80 mg/kg, 80 mg/kg i.g. single dose, all mice (Totol, 3 male + 3 female), read-out: Tmax", "result": "1.5 ± 1.34", "unit": "h"},
      {"measurement": "half-life", "setting": "po, 80 mg/kg, 80 mg/kg i.g. single dose, all mice (Totol, 3 male + 3 female), read-out: t1/2 (converted)", "result": 2.4, "unit": "h"},
      {"measurement": "bioavailability", "setting": "po, 80 mg/kg, single oral doses 20, 40, 80 mg/kg, read-out: absolute (oral) bioavailability, mean over single oral doses", "result": 54.2, "unit": "%"},
      {"measurement": "bioavailability", "setting": "po, 80 mg/kg, single oral doses 20, 40, 80 mg/kg, read-out: absolute (oral) bioavailability, range over single oral doses", "result": "40.2 to 64.7", "unit": "%"},
      {"measurement": "AUC(0-t)", "setting": "po, after oral dosing from 20 to 80 mg/kg, mouse plasma, read-out: AUC0-t, range over oral doses", "result": "15600 to 70000", "unit": "ng·h/mL"},
      {"measurement": "Cmax", "setting": "po, after oral dosing from 20 to 80 mg/kg, mouse plasma, read-out: Cmax, range over oral doses", "result": "8750 to 12900", "unit": "ng/mL"},
      {"measurement": "Tmax", "setting": "po, after oral gavage, mouse plasma, read-out: mean Tmax, range over oral doses", "result": "0.458 to 1.58", "unit": "h"},
      {"measurement": "Tmax", "setting": "po, oral 20 to 80 mg/kg pooled, mouse plasma, n=6, read-out: Tmax, post-oral", "result": "0.79 ± 0.36", "unit": "h"},
      {"measurement": "half-life", "setting": "po, oral 20 to 80 mg/kg pooled, mouse plasma, n=6, read-out: t1/2, post-oral (converted)", "result": "1.59 ± 0.853", "unit": "h"},
      {"measurement": "MRT inf", "setting": "po, 20 mg/kg i.g. single dose, all mice (Totol, 3 male + 3 female), read-out: MRT0-∞", "result": 1.64, "unit": "h"}
    ]}
  ]
}
